We go through four compounds from patent US20260125352A1, “PROCESSES FOR CONVERTING FURFURALS” (Origin Materials Operating, Inc., priority 2023, published 2026).

The data set can be described thus: Solubility of amine and their hydrochlorides in solvents at room temperature. The note with it: for Solubility of amines in acetone / Solubility of amines in methanol / Solubility of amines in methylfurfural (MF) / Solubility of amines in propylene carbonate / Solubility of amines in toluene / Solubility of amines in water: free amine, low values at saturation; for Solubility of amines in acetone / Solubility of amine hydrochloride salts in acetone: acetone μ = 20.7, high values not necessarily at saturation; for Solubility of amines in methanol / Solubility of amine hydrochloride salts in methanol: methanol μ = 32.7, high values not necessarily at saturation; for Solubility of amines in methylfurfural (MF) / Solubility of amine hydrochloride salts in methylfurfural (MF): methylfurfural (MF) μ = 41.9, high values not necessarily at saturation; for Solubility of amines in propylene carbonate / Solubility of amine hydrochloride salts in propylene carbonate: propylene carbonate μ = 64.9, high values not necessarily at saturation; for Solubility of amines in toluene / Solubility of amine hydrochloride salts in toluene: toluene μ = 2.4, high values not necessarily at saturation; for Solubility of amines in water / Solubility of amine hydrochloride salts in water: water μ = 78.4, high values not necessarily at saturation; for Solubility of amine hydrochloride salts in acetone / Solubility of amine hydrochloride salts in methanol / Solubility of amine hydrochloride salts in methylfurfural (MF) / Solubility of amine hydrochloride salts in propylene carbonate / Solubility of amine hydrochloride salts in toluene / Solubility of amine hydrochloride salts in water: hydrochloride salt of the amine precursor. The data set is classed as physicochemical.

Molecules are shown by their SMILES.

`CCCCCN(CCCCC)CCCCC` [triamylamine]: the “Solubility of amines in acetone” value turned out to be 49.87 wt. %, the “Solubility of amines in methanol” value was found to be 9.27 wt. %, the “Solubility of amines in methylfurfural (MF)” value was 2.49 wt. % and the “Solubility of amines in propylene carbonate” value was 0.17 wt. %. Moreover, the “Solubility of amines in toluene” value worked out at 47.61 wt. % and the “Solubility of amines in water” value came out at 0.00 wt. %.
For the compound `CN(C)C` [trimethylamine], the “Solubility of amines in water” value came to 47.16 wt. %, the “Solubility of amine hydrochloride salts in acetone” value is on record as less than 0.09 wt. %, the “Solubility of amine hydrochloride salts in methanol” value is recorded as 34.66 wt. % and the “Solubility of amine hydrochloride salts in methylfurfural (MF)” value is less than 0.13 wt. %. For the same compound, the “Solubility of amine hydrochloride salts in propylene carbonate” value is on record as less than 1.16 wt. %, the “Solubility of amine hydrochloride salts in toluene” value is less than 0.12 wt. % and the “Solubility of amine hydrochloride salts in water” value came out at 38.39 wt. %.
`CCN(C(C)C)C(C)C` [Hunig's base]: the “Solubility of amines in acetone” value stood at 49.20 wt. %, the “Solubility of amines in methanol” value stood at 49.11 wt. %, the “Solubility of amines in methylfurfural (MF)” value came out at 14.35 wt. % and the “Solubility of amines in propylene carbonate” value stood at 4.59 wt. %. For the same compound, the “Solubility of amines in toluene” value was determined as 46.90 wt. %, the “Solubility of amines in water” value is reported as 0.30 wt. %, the “Solubility of amine hydrochloride salts in acetone” value was 15.01 wt. % and the “Solubility of amine hydrochloride salts in methanol” value is 33.08 wt. %. Moreover, the “Solubility of amine hydrochloride salts in methylfurfural (MF)” value stood at 26.83 wt. %, the “Solubility of amine hydrochloride salts in propylene carbonate” value was determined as 34.05 wt. %, the “Solubility of amine hydrochloride salts in toluene” value is on record as less than 4.91 wt. % and the “Solubility of amine hydrochloride salts in water” value is recorded as 33.39 wt. %.
Take `CC(C)CN(CC(C)C)CC(C)C` [triisobutylamine, 2-methyl-N,N-bis(2-methylpropyl)propan-1-amine]: the “Solubility of amine hydrochloride salts in acetone” value was determined as 34.35 wt. %, the “Solubility of amine hydrochloride salts in methanol” value was determined as 47.15 wt. %, the “Solubility of amine hydrochloride salts in methylfurfural (MF)” value came out at 24.44 wt. % and the “Solubility of amine hydrochloride salts in propylene carbonate” value is on record as 31.21 wt. %. In addition, the “Solubility of amine hydrochloride salts in toluene” value is recorded as 51.82 wt. % and the “Solubility of amine hydrochloride salts in water” value was determined as 25.88 wt. %.
